According to ChEMBL document CHEMBL1141145, “A chiral benzoquinolizine-2-carboxylic acid arginine salt active against vancomycin-resistant Staphylococcus aureus” (J Med Chem, 2005):
Converted amounts (≈) assume the structure as drawn.

Tests used:
physchem [1] = assay: physchem
[2] = biological target: DNA topoisomerase 4 subunit A (Staphylococcus aureus) (UniProt P0C1U9)
Staphylococcus aureus [3] = assay: Minimum inhibitory concentration against Staphylococcus aureus gyrA/grlA double mutant; type: functional
Staphylococcus aureus [4] = assay: Minimum inhibitory concentration against Staphylococcus aureus grlA mutant; type: functional
Staphylococcus aureus [5] = assay: Minimum inhibitory concentration against Staphylococcus aureus gyrA mutant; type: functional
DNA gyrase [6] = biological target: T1, DNA gyrase (Staphylococcus aureus, UniProt P0A0K8+P20831)
T1 sequence (P0A0K8 whole entry): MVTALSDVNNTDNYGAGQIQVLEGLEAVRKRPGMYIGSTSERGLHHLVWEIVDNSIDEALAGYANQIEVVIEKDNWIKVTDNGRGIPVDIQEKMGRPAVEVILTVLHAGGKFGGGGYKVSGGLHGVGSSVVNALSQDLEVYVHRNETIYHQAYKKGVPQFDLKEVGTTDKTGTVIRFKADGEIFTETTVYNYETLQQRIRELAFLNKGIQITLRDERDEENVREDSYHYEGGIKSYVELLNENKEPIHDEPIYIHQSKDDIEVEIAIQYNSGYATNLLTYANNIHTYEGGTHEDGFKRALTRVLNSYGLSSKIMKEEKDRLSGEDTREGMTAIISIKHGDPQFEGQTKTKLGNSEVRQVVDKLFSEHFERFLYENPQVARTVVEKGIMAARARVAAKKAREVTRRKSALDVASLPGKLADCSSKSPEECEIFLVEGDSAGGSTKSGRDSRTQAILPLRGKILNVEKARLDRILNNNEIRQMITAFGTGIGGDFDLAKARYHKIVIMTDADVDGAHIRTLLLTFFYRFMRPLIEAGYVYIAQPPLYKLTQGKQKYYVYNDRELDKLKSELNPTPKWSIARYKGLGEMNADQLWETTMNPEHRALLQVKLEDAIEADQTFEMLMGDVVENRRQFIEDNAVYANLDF
T1 sequence (P20831 whole entry): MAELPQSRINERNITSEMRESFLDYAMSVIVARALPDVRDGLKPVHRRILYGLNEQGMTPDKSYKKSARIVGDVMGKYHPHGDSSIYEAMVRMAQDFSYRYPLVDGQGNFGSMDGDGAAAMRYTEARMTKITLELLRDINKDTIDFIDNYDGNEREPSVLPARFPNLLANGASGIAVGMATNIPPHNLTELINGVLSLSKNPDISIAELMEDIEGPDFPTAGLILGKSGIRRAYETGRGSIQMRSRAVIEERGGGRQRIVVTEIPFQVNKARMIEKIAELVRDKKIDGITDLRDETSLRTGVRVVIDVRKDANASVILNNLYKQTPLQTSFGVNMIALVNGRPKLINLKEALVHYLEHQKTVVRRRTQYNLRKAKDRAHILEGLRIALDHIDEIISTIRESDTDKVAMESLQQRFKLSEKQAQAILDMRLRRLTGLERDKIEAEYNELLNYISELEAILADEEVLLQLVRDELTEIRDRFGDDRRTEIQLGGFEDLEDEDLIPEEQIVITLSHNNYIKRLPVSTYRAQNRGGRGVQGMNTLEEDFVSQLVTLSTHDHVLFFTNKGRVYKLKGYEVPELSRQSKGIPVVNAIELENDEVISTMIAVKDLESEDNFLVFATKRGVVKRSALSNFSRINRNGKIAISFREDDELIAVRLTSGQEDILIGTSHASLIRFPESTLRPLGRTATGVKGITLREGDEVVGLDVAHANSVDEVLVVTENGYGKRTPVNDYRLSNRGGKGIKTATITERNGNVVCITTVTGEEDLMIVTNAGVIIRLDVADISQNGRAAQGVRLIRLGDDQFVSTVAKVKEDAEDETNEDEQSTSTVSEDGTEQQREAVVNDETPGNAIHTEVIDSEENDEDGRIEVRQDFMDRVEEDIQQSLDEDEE

[7] = biological target: DNA topoisomerase 4 subunit A (Staphylococcus aureus, UniProt P0C1U9)
DNA topoisomerase 4 subunit A, sequence (P0C1U9 whole entry): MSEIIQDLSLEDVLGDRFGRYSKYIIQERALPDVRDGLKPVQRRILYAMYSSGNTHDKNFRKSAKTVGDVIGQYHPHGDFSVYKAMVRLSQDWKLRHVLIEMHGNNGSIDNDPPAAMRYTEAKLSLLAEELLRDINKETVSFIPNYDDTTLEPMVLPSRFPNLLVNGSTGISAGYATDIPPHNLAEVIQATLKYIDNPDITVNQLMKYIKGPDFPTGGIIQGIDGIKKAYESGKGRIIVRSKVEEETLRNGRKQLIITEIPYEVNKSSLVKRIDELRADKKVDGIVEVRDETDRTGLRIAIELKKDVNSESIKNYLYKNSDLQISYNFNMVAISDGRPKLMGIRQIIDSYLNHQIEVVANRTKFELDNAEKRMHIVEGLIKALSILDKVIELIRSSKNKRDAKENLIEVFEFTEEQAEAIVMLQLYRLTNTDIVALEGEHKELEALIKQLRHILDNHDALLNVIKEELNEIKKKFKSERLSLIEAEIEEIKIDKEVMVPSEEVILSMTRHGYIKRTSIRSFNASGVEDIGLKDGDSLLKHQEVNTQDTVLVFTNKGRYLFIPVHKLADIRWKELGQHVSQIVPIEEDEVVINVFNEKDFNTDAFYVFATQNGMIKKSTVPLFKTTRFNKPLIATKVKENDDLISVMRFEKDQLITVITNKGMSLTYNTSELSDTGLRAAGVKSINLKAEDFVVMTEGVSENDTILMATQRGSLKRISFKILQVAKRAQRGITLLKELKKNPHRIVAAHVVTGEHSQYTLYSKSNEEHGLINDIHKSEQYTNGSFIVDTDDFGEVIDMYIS

Staphylococcus aureus [8] = assay: Minimum inhibitory concentration against Staphylococcus aureus ISP 794 (wild type); type: functional
[9] = biological target: DNA gyrase (Staphylococcus aureus) (UniProt P0A0K8+P20831)
DNA gyrase (Staphylococcus aureus), sequence (P0A0K8 2-644 limits assumed): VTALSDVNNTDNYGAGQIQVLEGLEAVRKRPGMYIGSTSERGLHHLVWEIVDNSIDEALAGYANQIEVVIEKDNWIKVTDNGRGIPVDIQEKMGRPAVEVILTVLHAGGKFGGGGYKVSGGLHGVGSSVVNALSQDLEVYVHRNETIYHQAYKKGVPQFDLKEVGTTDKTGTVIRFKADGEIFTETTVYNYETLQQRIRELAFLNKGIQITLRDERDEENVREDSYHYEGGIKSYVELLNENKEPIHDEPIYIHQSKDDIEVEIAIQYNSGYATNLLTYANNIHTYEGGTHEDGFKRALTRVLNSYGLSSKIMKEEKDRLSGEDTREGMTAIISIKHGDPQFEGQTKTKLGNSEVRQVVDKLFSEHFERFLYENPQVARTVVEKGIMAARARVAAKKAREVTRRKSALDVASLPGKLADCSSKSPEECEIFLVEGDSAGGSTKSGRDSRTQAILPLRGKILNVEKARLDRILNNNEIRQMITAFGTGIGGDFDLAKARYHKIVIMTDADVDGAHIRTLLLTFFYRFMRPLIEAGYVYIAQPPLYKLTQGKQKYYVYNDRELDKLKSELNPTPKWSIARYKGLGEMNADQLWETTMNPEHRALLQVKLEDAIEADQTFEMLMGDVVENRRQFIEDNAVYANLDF
DNA gyrase (Staphylococcus aureus), sequence (P20831 whole entry partner): as the sequence (P20831 whole entry) above

Streptococcus pyogenes = assay: Minimum inhibitory concentration against Streptococcus pyogenes ATCC 19615; type: functional
Pseudomonas aeruginosa = assay: microbe, parasite or virus in culture; conditions: ATCC 27853
physchem [10] = conditions: octanol/water, pH 2
Staphylococcus aureus [11] = assay: Minimum inhibitory concentration against Staphylococcus aureus ATCC 25923; type: functional
Streptococcus agalactiae = assay: Minimum inhibitory concentration against Streptococcus agalactiae ATCC 13813; type: functional
Staphylococcus aureus [12] = assay: Frequency of resistance emergence for methicillin resistant Staphylococcus aureus-5023; type: functional
Streptococcus pneumoniae [13] = assay: microbe, parasite or virus in culture; conditions: ATCC 49619
Staphylococcus aureus [14] = assay: Ratio of MPC to MIC aganist methicillin resistant Staphylococcus aureus-32; type: functional
Staphylococcus aureus [15] = assay: Mutant prevention concentration aganist methicillin resistant Staphylococcus aureus-5023 done for 48 hr at 37 degree C with compound; type: functional
Enterococcus faecalis = assay: Minimum inhibitory concentration against Enterococcus faecalis ATCC 29212; type: functional
Streptococcus sanguinis = assay: Minimum inhibitory concentration against Streptococcus sanguis ATCC 10556; type: functional
[16] = system: Staphylococcus haemolyticus; assay: Minimum inhibitory concentration against Staphylococcus haemolyticus ATCC 29970; type: functional
Staphylococcus aureus [17] = assay: Ratio of MPC to MIC against methicillin resistant Staphylococcus aureus-33; type: functional
Staphylococcus aureus [18] = assay: Mutant prevention concentration against methicillin resistant Staphylococcus aureus-32 done for 48 h at 37 degree C with compound; type: functional
physchem [19] = conditions: octanol/water, pH 7.4
Klebsiella pneumoniae = assay: Minimum inhibitory concentration against Klebsiella pneumoniae ATCC 10031; type: functional
Streptococcus pneumoniae [20] = assay: microbe, parasite or virus in culture; conditions: ATCC 6303
physchem [21] = assay: physchem; remark: listed apart in the source
Escherichia coli = assay: microbe, parasite or virus in culture; conditions: ATCC 25922
Staphylococcus aureus [22] = assay: Mutant prevention concentration aganist methicillin resistant Staphylococcus aureus-33 done for 48 hr at 37 degree C with compound; type: functional
Staphylococcus aureus [23] = assay: Frequency of resistance emergence for methicillin resistant Staphylococcus aureus-33; type: functional
[24] = system: Staphylococcus saprophyticus; assay: Minimum inhibitory concentration against Staphylococcus saprophyticus ATCC 15305; type: functional
Staphylococcus aureus [25] = assay: Ratio of MPC to MIC against methicillin resistant Staphylococcus aureus-5023; type: functional
Staphylococcus aureus [26] = assay: Frequency of resistance emergence for methicillin resistant Staphylococcus aureus-32; type: functional
Phocaeicola vulgatus = assay: Minimum inhibitory concentration against Bacteroides vulgatus ATCC 29327; type: functional
Staphylococcus aureus [27] = assay: microbe, parasite or virus in culture
Mus musculus [28] = assay: Efficacy against mice infected with Staphylococcus aureus ATCC 25923 upon s.c. administration; type: functional; conditions: sc
Mus musculus [29] = assay: Efficacy against mice infected with MRSA-32 upon s.c. administration; type: functional; conditions: MRSA-32, sc
Staphylococcus aureus [30] = assay: microbe, parasite or virus in culture; remark: listed apart in the source
Mus musculus [31] = assay: Efficacy against mice infected with MRSA-33 upon s.c. administration; type: functional; conditions: sc
Staphylococcus aureus [32] = assay: microbe, parasite or virus in culture; remark: listed apart in the source
Staphylococcus aureus [33] = assay: Minimum inhibitory concentration against vancomycin intermediate Staphylococcus aureus MU 3; type: functional
Staphylococcus aureus [34] = assay: microbe, parasite or virus in culture; remark: listed apart in the source
DNA gyrase [35] = biological target: T1, DNA gyrase; remark: listed apart in the source
Mus musculus [36] = assay: Protection of mice infected with MRSA-32 cell suspension after oral administration of compound; type: functional; conditions: Mus musculus, MRSA-32, po; read-out: ED50
Staphylococcus aureus [37] = assay: Minimum inhibitory concentration against methicillin susceptible Staphylococcus aureus; type: functional; conditions: Staphylococcus aureus; read-out: MIC
[38] = Peak plasma concentration in phase I clinical studies at a i.v. dose of 600 mg; type: ADME, organism-based; design: dose 600 mg, route intravenous; conditions: human, iv
Rattus norvegicus = assay: Amount of drug at which at 14 days of daily administration produced no venous blockage or phlebitis in rats; type: functional
Staphylococcus aureus [39] = assay: Minimum inhibitory concentration against vancomycin-resistant Staphylococcus aureus (Hershey); type: functional
[40] = Half life in phase I clinical studies at a i.v. dose of 600 mg; type: ADME, organism-based; conditions: human, in vivo, iv
Staphylococcus aureus [41] = assay: Minimum inhibitory concentration against Vancomycin intermediate Staphylococcus aureus MU 50; type: functional
physchem [42] = assay: physchem; remark: listed apart in the source

DNA topoisomerase 4 subunit A (Staphylococcus aureus), sequence (P0C1U9 whole entry): as the sequence (P0C1U9 whole entry) above

| Compound | pKa (physchem [1]) | MIC (Staphylococcus aureus [3]) [µg/mL] | MIC (Staphylococcus aureus [4]) [µg/mL] | MIC (Staphylococcus aureus [5]) [µg/mL] | MIC (Streptococcus pyogenes) [µg/mL] | MIC (Pseudomonas aeruginosa) [µg/mL] | MIC (Staphylococcus aureus [11]) [µg/mL] | MIC (Streptococcus agalactiae) [µg/mL] | FRE (Staphylococcus aureus [12]) | MPC (Staphylococcus aureus [15]) [µg/mL] | MIC (Enterococcus faecalis) [µg/mL] | MIC (Streptococcus sanguinis) [µg/mL] | MIC [16] [µg/mL] | MPC (Staphylococcus aureus [18]) [µg/mL] | MIC (Klebsiella pneumoniae) [µg/mL] | MPC (Staphylococcus aureus [22]) [µg/mL] | FRE (Staphylococcus aureus [23]) | MIC [24] [µg/mL] | FRE (Staphylococcus aureus [26]) | MIC (Phocaeicola vulgatus) [µg/mL] | further results |
| --- | --- | --- | --- | --- | --- | --- | --- | --- | --- | --- | --- | --- | --- | --- | --- | --- | --- | --- | --- | --- | --- |
| CC1CCc2c(N3CCC(O)CC3)c(F)cc3c(=O)c(C(=O)O)cn1c23 (stereo not drawn) [NADIFLOXACIN] | 6.8 | 32 (≈ 88.8 µM) | 1 (≈ 2.77 µM) | 1 (≈ 2.77 µM) |  |  |  |  |  |  |  |  |  |  |  |  |  |  |  |  | CC50 [2]: > 10 µg/mL; IC50 (DNA gyrase [6]): 27.7 µM; IC50 [7]: > 27.7 µM; MIC (Staphylococcus aureus [8]): 0.25 µg/mL (≈ 0.694 µM); CC50 [9]: 25 µg/mL (≈ 69.4 µM) |
| COc1c(N2CCNC(C)C2)c(F)cc2c(=O)c(C(=O)O)cn(C3CC3)c12 (stereo not drawn) [GATIFLOXACIN] | 5.97 |  |  |  | 0.25 (≈ 0.666 µM) | 4 (≈ 10.7 µM) | 0.1 (≈ 0.266 µM) | 0.25 (≈ 0.666 µM) | 3.51e-06 | 8 | 0.25 (≈ 0.666 µM) | 0.5 (≈ 1.33 µM) | 0.06 (≈ 0.16 µM) | 8 | 0.008 (≈ 0.0213 µM) | 14 | 0.0041 | 0.25 (≈ 0.666 µM) | 0.000451 | 0.5 (≈ 1.33 µM) | logD (physchem [10]): -1.14; MIC (Streptococcus pneumoniae [13]): 0.5 µg/mL (≈ 1.33 µM); MPC/MIC (Staphylococcus aureus [14]): 2; MPC/MIC (Staphylococcus aureus [17]): 3.5; logD (physchem [19]): -0.79; MIC (Streptococcus pneumoniae [20]): 0.5 µg/mL (≈ 1.33 µM); pKa (physchem [21]): 9.82; MIC (Escherichia coli): 0.03 µg/mL (≈ 0.0799 µM); MPC/MIC (Staphylococcus aureus [25]): 2 |
| COc1c(N2C[C@@H]3CCCN[C@@H]3C2)c(F)cc2c(=O)c(C(=O)O)cn(C3CC3)c12 [MOXIFLOXACIN] |  |  |  |  | 0.25 (≈ 0.623 µM) | 4 (≈ 9.96 µM) | 0.06 (≈ 0.149 µM) | 0.12 (≈ 0.299 µM) | 3.1e-05 | 10 | 0.25 (≈ 0.623 µM) | 0.5 (≈ 1.25 µM) | 0.06 (≈ 0.149 µM) | 10 | 0.008 (≈ 0.0199 µM) | 10 | 2.1e-06 | 0.25 (≈ 0.623 µM) | 4.51e-05 | 0.5 (≈ 1.25 µM) | MIC (Staphylococcus aureus [27]): 2 µg/mL (≈ 4.98 µM); ED50 (Mus musculus [28]): 0.6 mg/kg; ED50 (Mus musculus [29]): 30 mg/kg; MIC (Staphylococcus aureus [30]): 2 µg/mL (≈ 4.98 µM); ED50 (Mus musculus [31]): 66.1 mg/kg; MIC (Staphylococcus aureus [32]): 4 µg/mL (≈ 9.96 µM); MIC (Staphylococcus aureus [33]): 4 µg/mL (≈ 9.96 µM); MIC (Staphylococcus aureus [34]): 2 µg/mL (≈ 4.98 µM) |
| C[C@H]1CCc2c(N3CCC(O)CC3)c(F)cc3c(=O)c(C(=O)O)cn1c23.N=C(N)NCCC[C@H](N)C(=O)O.O.O.O.O |  | 1 | 0.032 | 0.032 | 0.06 | 4 | 0.03 | 0.12 | <4.1e-07 | 2 | 0.25 | 0.25 | 0.015 | 2 | 0.008 | 2 | <3.51e-09 | 0.06 | <6.51e-09 | 0.5 | MIC (Staphylococcus aureus [27]): 1 µg/mL; ED50 (Mus musculus [28]): 0.59 mg/kg; IC50 (DNA gyrase [35]): 8.24 µM; ED50 (Mus musculus [36]): 93.6 mg/kg; MIC (Streptococcus pneumoniae [13]): 0.12 µg/mL; ED50 (Mus musculus [29]): 27.8 mg/kg; MIC (Staphylococcus aureus [30]): 1 µg/mL; MIC (Staphylococcus aureus [37]): 0.03 µg/mL; MIC (Streptococcus pneumoniae [20]): 0.12 µg/mL; Cmax [38]: 4000 ng/mL; ED50 (Mus musculus [31]): 38.3 mg/kg; MIC (Staphylococcus aureus [33]): 2 µg/mL; MIC (Staphylococcus aureus [34]): 1 µg/mL; MIC (Escherichia coli): 0.12 µg/mL; NOEL (Rattus norvegicus): 250 mg/kg; MIC (Staphylococcus aureus [39]): 0.5 µg/mL; half-life [40]: 6 h; IC50 [7]: 8.24 µM; MIC (Staphylococcus aureus [8]): 0.016 µg/mL; MIC (Staphylococcus aureus [41]): 1 µg/mL |
| N[C@@H]1[C@H]2CN(c3nc4c(cc3F)c(=O)c(C(=O)O)cn4-c3ccc(F)cc3F)C[C@@H]12 [TROVAFLOXACIN] | 4.45 |  |  |  |  |  |  |  |  |  |  |  |  |  |  |  |  |  |  |  | logD (physchem [10]): -0.35; pKa (physchem [42]): 8.13; logD (physchem [19]): 0.42; pKa (physchem [21]): 8.02 |
